Seven molecules from PubChem BioAssay (NCI) can be followed below.

Common to all, as to test: NCI anticancer screen, dose series, 48 h
Assay [1] relates to EKVX NSCLC.
For assay [2], the system named is HCC-2998 colon.
For assay [3], the system named is HCT-116 colon.
Assay [4] deals with HOP-62 NSCLC.
The subject of assay [5] is HT29 colon.
For assay [6], the system named is M14 melanoma.
Assay [7] has as its system MDA-MB-435.
In assay [8] the test system is SF-268 CNS.
Assay [9] has as its system SK-OV-3 ovarian.
In assay [10] the test system is SW-620 colon.

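Tested at 5 concentrations; 48 h exposure; 96-well plates; endpoints linearly interpolated, else capped at highest concentration. The concentration for 50% growth inhibition is given as GI50. TGI: concentration producing complete growth inhibition.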

`Brc1cccc(-c2cc(-c3ccc4nccnc4c3)[nH]n2)c1`: the GI50 is 4.24 µM in assay [1]; 3.25 µM in [2]; 0.603 µM in assay [3]; 1.02 µM in [4]; 0.174 µM in assay [5]; 0.43 µM in assay [6]. The GI50 is 0.0743 µM in assay [7], 3.68 µM in [8], 0.845 µM in assay [9] and 0.273 µM in assay [10]. Besides, the TGI in [1] was above 250 µM; in [2], above 250 µM; in [3], above 84.2 µM; in [4] it was above 250 µM; in assay [5], above 165 µM; in assay [6] it was above 250 µM. Further, the TGI in assay [7] was 0.412 µM; in assay [8], above 250 µM; in assay [9], above 250 µM; in assay [10], above 250 µM.
In the case of `COc1cccc(CC(C)=C(c2ccc(OCCCN(C)C)cc2)c2ccc(OCCCN(C)C)cc2)c1`, the GI50 in assay [1] was 1.64 µM; in [2] it was 0.446 µM; in assay [3] it was 0.447 µM; in assay [4], 0.501 µM; in [5] it was 0.443 µM; in assay [6], 0.461 µM. The GI50 is 0.444 µM in assay [7], 0.683 µM in assay [8], 4.04 µM in assay [9] and 0.434 µM in assay [10]. Besides, the TGI in assay [1] was found to be 5.17 µM; in [2] it was 0.906 µM; in assay [3], 0.839 µM; in assay [4], 1.1 µM; in assay [5], 0.912 µM; in assay [6], 0.864 µM. The TGI in assay [7] turned out to be 0.819 µM; in assay [8] it was 2.05 µM; in assay [9], 7.57 µM; in assay [10] it was 0.867 µM.
Consider `C=CCCCOC1[C@H](OCc2ccccc2)C(OCc2ccccc2)C(OC)O[C@@H]1CNC(=O)c1cccc(I)c1` (stereo not given in full), for which the GI50 in assay [1] was 3.2 µM; in assay [2], above 100 µM; in assay [3], 4.3 µM; in assay [4] it was above 100 µM; in assay [5], 4.54 µM; in [6], 60.2 µM. Besides, the GI50 is 5.31 µM in assay [7], 5.38 µM in [8], 5.45 µM in assay [9] and 4.62 µM in [10]. Further, the TGI in assay [1], in assay [2], in assay [3], in assay [4], in assay [5] and in assay [6] was above 100 µM throughout. The TGI in assay [7], in [8], in assay [9] and in assay [10] was above 100 µM throughout.
Regarding `CC(=O)O.CC(=O)O.CC(=O)O.CC(=O)O.[Rh].[Rh]`, the GI50 in [1] was 20.7 µM; in assay [2], 24 µM; in assay [3] it was 24.1 µM; in [4], 28.8 µM; in assay [5], 21.2 µM; in assay [6], 27.8 µM. Besides, the GI50 is 21.7 µM in assay [7], 33.2 µM in assay [8], above 100 µM in [9] and 22 µM in assay [10]. In addition, the TGI in [1] came out at 44.1 µM; in assay [2], 56.7 µM; in [3] it was 94.1 µM; in [4] it was 84.3 µM; in assay [5] it was 53.6 µM; in assay [6] it was 82.5 µM. Moreover, the TGI in assay [7] is 55.4 µM; in assay [8], above 100 µM; in assay [9] it was above 100 µM; in [10], above 100 µM.
For the molecule `O=C1CSC(c2ccccc2O)N1c1nnc(Cn2ccnc2)o1` (stereo not given), the GI50 is 3.5 µM in assay [1]; 22.8 µM in [2]; 9.86 µM in assay [3]; 17.6 µM in [4]; 5 µM in [5]; 7.97 µM in assay [6]. The GI50 in assay [7] is 2.35 µM; in [8], 10.8 µM; in assay [9], 27.6 µM; in assay [10], 5.14 µM. Moreover, the TGI in assay [1] is 20 µM; in assay [2] it was 89.5 µM; in [3], 43.7 µM; in assay [4], above 100 µM; in assay [5] it was above 100 µM; in assay [6], 43.9 µM. The TGI in [7] is 8.55 µM; in [8], 48 µM; in assay [9], above 100 µM; in assay [10], 32.4 µM.
`Oc1c(Cl)cc(Cl)c2cccnc12`: the GI50 is 2.9 µM in assay [1]; 10.1 µM in [2]; 2.97 µM in [3]; 2.24 µM in [4]; 4.99 µM in assay [5]; 1.96 µM in assay [6]. Besides, the GI50 is 3.84 µM in assay [7], 3.39 µM in [8], 3.71 µM in [9] and 4.47 µM in assay [10]. The TGI in [1] stood at 15.2 µM; in assay [2] it was 26 µM; in assay [3], 10.1 µM; in assay [4], 21.1 µM; in assay [5], 18 µM; in assay [6] it was 5.26 µM. For the same molecule, the TGI in assay [7] is above 100 µM; in assay [8] it was above 100 µM; in assay [9], 16.2 µM; in [10] it was 18.4 µM.
As for `C[C@H]1c2ccccc2CN1CCCOc1cc2c(cc1OCC1CC1)C1(CCCC1)C(N)=N2`, the GI50 in [1] is 4.33 µM; in assay [2], 0.931 µM; in assay [3] it was 0.95 µM; in assay [4], 3.67 µM; in [5], 1.05 µM; in [6], 0.932 µM. The GI50 in assay [7] is 1.67 µM; in assay [8] it was 2.94 µM; in [9], 4.84 µM; in assay [10], 0.977 µM. Further, the TGI is 10.8 µM in assay [1]; 1.78 µM in assay [2]; 2.26 µM in assay [3]; 10.2 µM in [4]; 2.67 µM in assay [5]; 1.81 µM in assay [6]. Also, the TGI in [7] worked out at 5.76 µM; in assay [8], 10.3 µM; in assay [9], 10.7 µM; in [10], 2.31 µM.
